Patent US20250092395A1, “A GLUN2D INHIBITOR FOR USE IN THE TREATMENT OR RELAPSE PREVENTION OF A DEPRESSIVE EPISODE” (priority 2022, published 2025)
“Also recorded” adds a separate entry of the source.

Experiments:
[1] = test system: CDM mice; experiment: Nose-poke sucrose preference test in CDM mice; format: in vivo; conditions: CIQ or lorazepam applied prior to NAB-14
Excerpt: (§1) Behavioral Readout: After the treatment intervention, animals were either tested in an additional swim session (test day) to measure immobility time or tested in the InteliCage using the Nose-pokes sucrose preference test. For the assessment of the immobility time, mice were videotaped and two independent raters who were blinded to the experimental group analyzed the videos. Immobility time was defined as the cumulative time that the animals spend stationary with only enough movements of the tails or the forepaws to keep the head above the water surface. No distance is actively travelled except for passive floating, no directed movement of the front paws observed and the body of the animal mostly oriented parallel to the walls of the cylinder.
The IntelliCage system (TSE Systems) allows simultaneous analysis of spontaneous and exploratory behavior, activity pattern, and drinking preference of up to 16 group-housed mice implanted with radio-frequency identification (RFID) transponders. The unit consists of an open common space with 4 red shelters in the center and 4 recording corners. Mice have free access to food in the middle of the IntelliCage, water is available in the corners behind remote-controlled guillotine doors. Each corner is equipped with 2 drinking bottles and permits the visit of only one mouse at the same time. The scored parameters—the nosepokes toward the doors and the licks on the bottles—were monitored by a PC-based tracking software (IntelliCage Plus, TSE Systems). Initially, the mice were allowed to adapt to the IntelliCage for at least 7 days with water available ad libitum in all corners. Then for 3 days the animals were habituated to the sucrose taste: in each corner one of the bottles was filled with 1% sucrose solution and the other one with water. Both doors in the corner were open allowing free choice between the bottles. Next, a nosepoke adaptation period was carried out, where all doors were closed and the mice had to perform a nosepoke to open them. The opened door closes automatically after 5 s of drinking. In all tasks involving sucrose-filled bottles, the positions of the bottles were exchanged every 24 h. The Nosepoke SPT protocol was used (see Alboni et al.) for measurement of sucrose preference with gradually increasing effort (number of nosepokes) to reach the sucrose bottles for a short period of time (12 h). In this paradigm each door opens in response to a nosepoke and closes after 5 s licking. The number of nosepokes needed to open a door to a side with a sucrose containing bottle gradually increases (1, 2, 3, 4, 5, 6, 8, 10, 12, 16, 20, 24) after every 8 sucrose licking sessions. For each bottle the number of licks was recorded and the averaged sucrose preference was calculated as percentage of the total number of licks.

[2] = test system: mice subjected to the chronic despair model (CDM); experiment: Chronic despair model (CDM) swim test, immobility time; format: in vivo; conditions: for immobility time of CDM mice treated with NAB-14, comedication: CIQ (10 mg/kg) or lorazepam (0,125 mg/kg) applied prior to NAB-14
Description: Induction phase: Mice were forced to swim in a glass cylinder (0 26 cm, 60 cm high) filled to 25 cm with 25° C. warm water for 10 min on 5 consecutive days. After the swimming, the animals were kept in their cages for two days before treatment and experiment readout was performed. The immobility time was measured in each session.
as §1

[3] = test system: CA3-CA1 synapse in hippocampal brain slices of CDM mice; experiment: aLTP/aLTD inducibility in hippocampal brain slices of CDM mice after in vivo treatment; conditions: for LTP reestablishment by NAB-14, comedication / CDM-induced blockade of LTP inducibility (aLTP) / LTD inducibility (EPSP amplitude after aLTD protocol): CDM mice; for LTP reestablishment by NAB-14, comedication: CIQ or lorazepam injected 20 min prior to NAB-14; for CDM-induced blockade of LTP inducibility (aLTP): pretreatment; for LTD inducibility (EPSP amplitude after aLTD protocol): treatment after CDM
Description: Animals were preoxygenated in a 100% oxygen atmosphere for 5 min before cervical dislocation and decapitated according to national and institutional guidelines. Transverse 300 […] were cut from hippocampus with a Vibratome (VT1200, Leica, Japan). Slices were prepared in artificial cerebrospinal fluid (ACSF) containing (in mmol/I): 125 NaCl, 25 NaHCO3, 1.25 NaH2PO4, 2.5 KCL, 1 MgCl2, 27 Glucose, 2 CaCl2) bubbled with carbogen (95% O2, 5% CO2).
After 20 min resting time at 35° C., slices were kept at room temperature in aCSF and transferred into the recording chamber (volume approx. 2-3 ml) and continuously superfused with aCSF (rate approx. 5-10 ml/min-). Differential interference contrast video microscopy was used to identify location of CA1 pyramidal neurons (Zeiss Axioskop 2 FS plus, Zeiss Microscopy, Germany). Beside optical identification neurons were classified according to their characteristic firing frequency adaptation to long depolarising current pulses. Borosilicate glass tubes (2.0 mm outer diameter, 0.5 mm wall thickness; Hilgenberg, Germany) were used to pull patch pipettes. Pipettes with a resistance of 5-10 MΩ were used and series resistance of 10-50 MΩ was compensated by bridge balance. Patch pipettes were filled with an internal solution containing (in mM) for EPSP-measurements: 132K-gluconate, 20KCL, 2MgCl2, 10Hepes, 0.1EGTA, 4 Na2ATP, 0.3NaGTP. PH was adjusted to 7.2 with KOH. For current measurements: 135Csgluconate, 2CsCl, 5 QX314, 10 Hepes, 10EGTA, 2MgCl2, 2Na2ATP, 2TEACI, pH was adjusted to 7.2 with HCl. Osmolarity (280-300 mosmol/1) was controlled at the beginning of each experimental day with Osmomat (Gonotec GmbH, Germany).
A stimulation pipette (patch pipette with 1-3 MΩ resistance when filled with internal solution) was placed superficially in the stratum radiatum of the CA1 region in approximately […] distance to the pyramidal cell layer. Subthreshold excitatory postsynaptic potentials (EPSPs, 2 7 mV) were evoked by Schaffer collateral stimulation with voltage pulses of 10-80 V (frequency of 0.1 Hz, duration of 200 μs) using a stimulus isolator (Model 2100 Isolated pulse stimulator, Carlsborg, U.S.A.). Resting membrane potentials were between −75 and −65 mV and holding potential was −70 mV. 50 ms current test pulses (leading to 5-10 mV hyperpolarization) were applied to control input and series resistances after every 10th EPSP. EPSPs were combined with APs triggered by short (3 ms) current application of 900 pA via the patch-clamp electrode. EPC-10 amplifiers (HEKA, Germany) were used and signals were filtered at 5 kHz. Patchmaster NEXT software (Version 1.2, HEKA, Germany) was used for data acquisition and experiments were performed at room temperature.
aLTP: Five EPSPs and five postsynaptic APs were paired at 100 Hz with a 5 ms delay (AP after EPSP). Five of these bursts of synchronized EPSP→AP pairs were applied at theta frequency (5 Hz), followed by an interval of 10 sec and 4 more theta blocks, resulting in 125 EPSP/AP pairings.
aLTD: 360 postsynaptic APs were pared with 360 EPSPs with a delay of 20-30 ms between each AP/EPSP pairing at a frequency of 1 Hz. 1 Hz LTD: 600 EPSPs were elicited at a frequency of 1 Hz whilst CA1 pyramidal cell membrane potential was hold at −60 mV.
Long-term plasticity or molecular analyses were assessed as described above after the induction phase of the CDM and the specific treatment.
EPSP measurement: For baseline measurement, the mean amplitudes of 30 consecutive EPSPs before the induction protocol were calculated. 25 min after LTP induction the mean amplitude of 30 consecutive EPSPs was calculated and compared to the baseline of the same measurement. Changes of EPSP amplitudes were expressed as percentages of the baseline measurement and analysed for each experimental group applying a two-tailed Wilcoxon test. The differences between separate experimental groups were assessed using the Mann-Whitney test, not assuming normal distribution. […]

[4] = test system: AMPAR and NMDAR currents; experiment: Control experiments: currents recorded at −80 mV and +40 mV; format: cell-based, mice; conditions: CNQX 10 μM; for currents recorded at −80 mV: then addition of DAPV 100 μM; for currents recorded at +40 mV: DAPV 100 μM
[5] = test system: CA3-CA1 synapse, CA1 pyramidal neurons in hippocampal brain slices; experiment: LTP/LTD protocols and wash-in in brain slices of unstressed mice, substance in bathing solution; format: cell-based; conditions: hydrochloride; for LTP inducibility, associative LTP protocol (aLTP): unstressed mice, bath with picrotoxin, R,S-ketamine 10 μM, S-ketamine 5 μM
[6] = test system: SOM-dependent feedback loop, CA1 PCs; experiment: Feedback loop-activating protocol (FLAP) in CA1 PCs; format: cell-based, mice
Description: A 300 ms depolarizing current between +100 and +[…] was injected via the patch pipette into a PC to elicit a train of 5-10 APs. After an interval of 600 ms, one EPSP (5-10 mV amplitude) was elicited by Schaffer collateral stimulation. This pattern was continuously repeated at a frequency of 0.2 Hz. Substances were added by bath application after a stable 10 min baseline recording for an additional 20 min. For data analysis the maximum EPSP amplitudes from minutes 0-10 were averaged and compared to averaged maximum EPSP amplitudes from minutes 20-30.
The slope of the EPSP rise at 20% to 40% of its maximal amplitude, at which point an approximately linear increase in its voltage could be assumed, was fitted with Fitmaster software (HEKA, Germany). We analyzed 20 EPSPs before and 20 EPSPs 25-30 minutes after NAB-14 wash-in in the FLAP protocol for each experiment. The coefficient of variation (CV) is the standard deviation of the EPSP slopes divided by the mean. The inverse square of the CV of the postwash-in slopes was divided by the inverse square of the prewash-in slopes and plotted against the corresponding normalized slopes. Pre- and postwash-in measurements from a single experiment are connected by a line. In a standard quantal model for synaptic transmission, synaptic responses are affected either by presynaptic changes in the number of release sites and/or the probability of release or by modifications of the postsynaptic response to a single […]. A change in the ratio of CV-2 reflects a presynaptic action, whereas horizontal lines in the CV-2 plot indicate a change in postsynaptic responsiveness.

[7] = test system: SOM-dependent feedback loop, CA1 PCs; experiment: as above; format: cell-based, mice; remark: listed apart in the source

COc1ccc(OCC2c3cc(OC)c(OC)cc3CCN2C(=O)c2cccc(Cl)c2)cc1 (stereo not drawn) [CIQ]
sucrose preference of CDM mice treated with NAB-14, comedication [1]: did not improve | immobility time of CDM mice treated with NAB-14, comedication [2]: did not improve; also recorded: blocked NAB-14 effects | LTP reestablishment by NAB-14, comedication [3]: abolishing LTP reestablishment; also recorded: blocked NAB-14 effects completely

N#Cc1cc2c(cc1[N+](=O)[O-])=NC(=O)C(=O)N=2 [CNQX, 6-Cyano-7-nitroquinoxaline-2,3-dione]
currents recorded at −80 mV [4]: fully blocked | currents recorded at +40 mV [4]: only partially be reduced; also recorded: only partially influenced

N[C@H](CCCP(=O)(O)O)C(=O)O [DAPV, D-(−)-2-Amino-5-phosphonopentanoic acid]
currents recorded at −80 mV [4]: did not significantly change; also recorded: did not have further effects | currents recorded at +40 mV [4]: full blockade; also recorded: fully blocked

N[C@@]1(c2ccccc2Cl)CCC[C@@H](O)C1=O [HNK, 2R,6R Hydroxynorketamine]
CDM-induced blockade of LTP inducibility (aLTP) [3]: neither HNK nor mGluR2 antagonist 1 treatment did change this blockade | LTD inducibility (EPSP amplitude after aLTD protocol) [3]: abolishes this reduction of amplitude; also recorded: completely blocked the LTD inducibility | EPSP amplitude after aLTD ([3]; treatment prior to swim sessions (before CDM), male and female mice): complete revers of EPSP amplitudes

COc1ccc2nc(/C=C/c3cccc([N+](=O)[O-])c3)n(-c3ccc(C(=O)O)cc3)c(=O)c2c1 [QNZ46, 4-[6-Methoxy-2-[(1E)-2-(3-nitrophenyl)ethenyl]-4-oxo-3(4H)-quinazolinyl]-Benzoic acid]
immobility time ([2]; CDM mice, 7 mg/kg i.p. two hours before behavioral readout, n=10): significantly reduced

CN[C@]1(c2ccccc2Cl)CCCCC1=O.Cl [S-ketamine, S-Ketamine hydrochloride]
EPSP amplitude after associative LTD protocol (aLTD, NMDAR-independent) [5]: unaffected; also recorded: neither R,S-ketamine (10 μM) nor S-ketamine (5 μM) had an effect | LTD inducibility, non-associative 1 Hz LTD protocol (NMDAR-dependent) [5]: fully blocked; also recorded: abolished | LTP inducibility, non-associative 100 Hz LTP protocol [5]: significant blockade of inducibility of LTP | aLTP induction [5]: neither K nor SK blocked aLTP induction; also recorded: not affected | LTP inducibility, associative LTP protocol (aLTP) [5]: significant blockade of inducibility of LTP | LTP inducibility, associative LTP protocol (aLTP) ([5]; listed as SK): complete inhibition of LTP

CN1C(=O)CN=C(c2ccccc2)c2cc(Cl)ccc21 [diazepam]
NAB-14-induced increase in EPSP amplitude in FLAP, in presence of diazepam [6]: abolished; also recorded: prevented | EPSP amplitude in the absence of AP bursts [7]: neither NAB14 nor diazepam wash-in significantly altered the EPSP amplitude; also recorded: no significant pre/post changes

O=C1Nc2ccc(Cl)cc2C(c2ccccc2Cl)=NC1O (stereo not drawn) [lorazepam]
sucrose preference of CDM mice treated with NAB-14, comedication [1]: did not improve | immobility time of CDM mice treated with NAB-14, comedication [2]: did not improve | immobility time of CDM mice treated with NAB-14, comedication ([2]; listed as Lorazepam): blocked NAB-14 effects | LTP reestablishment by NAB-14, comedication [3]: abolishing LTP reestablishment | LTP reestablishment by NAB-14, comedication ([3]; listed as Lorazepam): blocked NAB-14 effects completely | LTP inducibility, lorazepam alone ([3]; control and CDM condition): did block LTP inducibility

NC(=O)c1cc(-c2ccc(F)cc2)c2ccc(CN3C(=O)CCC3=O)cc2n1 [mGluR2 antagonist 1, 7-[(2,5-dioxopyrrolidin-1-yl)methyl]-4-(4-fluorophenyl)quinoline-2-carboxamide]
CDM-induced blockade of LTP inducibility (aLTP) [3]: neither HNK nor mGluR2 antagonist 1 treatment did change this blockade | LTD inducibility (EPSP amplitude after aLTD protocol) [3]: abolishes this reduction of amplitude; also recorded: completely blocked the LTD inducibility
